In patent US12102631B2, “Quinolylnitrones for the treatment and prevention of a cerebral stroke or ischaemia” (ISQUAEMIA BIOTECH, S.L., priority 2018, dated 2024):
“And” between values parts separate entries of the source, which are not always exact repeats. Identical values can stand only once.

Columns and labels:
[1] = tested on: Carrageenan-induced rat paw edema; experiment: Inhibition of Carrageenan-induced rat paw edema; format: in vivo, Fisher 344 rats; conditions: 0.01 mmol/kg intraperitoneally; 3.5 h after Carrageenan
Procedure: Inhibition of the Carrageenan-induced edema. Edema was induced in the right hind paw of Fisher 344 rats (150-200 g) by the intradermal injection of 0.1 mL 2% Carrageenan in water. Both sexes were used. Females pregnant were excluded. Each group was composed of 6 animals. The experiment was performed twice for validation. The animals, which have been bred in our laboratory, were housed under standard conditions and received a diet of commercial food pellets and water ad libitum during the maintenance, but they were entirely fasted during the experiment period. Nitrone 23 as well as of the standard drug indomethacin in 0.01 mmol/kg body weight, were diluted in water with few drops of Tween 80 and ground in a mortar before use and they were given intraperitoneally simultaneously with the Carrageenan injection. The rats were euthanized 3.5 h after Carrageenan administration. The difference between the weight of the injected and uninjected paws was calculated for each animal. The change in paw weight was compared with that in control animals (treated with water/or Tween-water) and expressed as a percent inhibition of the edema % ICPE values (Table 2). Values % ICPE are the mean from two different experiments (n=6 animals each time) with a standard error of the mean less than 10%.

[2] = ABTS radical cation decolorization assay; format: biochemical; conditions: tested at 100 μM
Procedure: ABTS^⋅+-decolorization assay in ethanolic solution for antioxidant activity.^32,35 ABTS is dissolved in water to a 2 mM concentration. ABTS radical cation (ABTS^⋅+) is produced by reacting the ABTS stock solution with 0.17 mM potassium persulfate in phosphate buffer (pH 7.4, 20 mM) and allowing the mixture to stand in the dark at room temperature for 12-16 h before use. For steady state measurements, […] ABTS^⋅+ was used. For the present study, the […] ABTS^⋅ solution (200 μL) was diluted with ethanol (790 μL) to an absorbance of 0.70 at 734 nm, equilibrated at room temperature, mixed with 10 μL of the tested compounds (stock solutions 10 mM) and the absorbance reading was taken at room temperature 1 min after the initial mixing. Trolox was used as a standard.
3.4. ABTS^⋅+ antioxidant activity of QNs. The ABTS^⋅+ radical cation, derived from the oxidation of 2,2′-azino-bis(3-ethylbenzothiazoline-6-sulphonic acid) (ABTS) by potassium persulfate, is a green-blue stable chromophore, which can be analyzed in the course of a decolorization assay. The addition of electron-donor antioxidants leads to ABTS^⋅+ reduction. The chemistry taking place involves the direct generation of the ABTS^⋅+ with no involvement of an intermediary radical. […] Again, and as shown, QN23 presented limited activity beside with 19, although the others nitrones had no activity (Table 3).

[3] = Inhibition of linoleic acid peroxidation (AAPH, ILPO); format: biochemical; conditions: tested at 100 μM
Procedure: Inhibition of Linoleic Acid Peroxidation.^32 For initiating the free radical, 2,2′-azobis(2-amidinopropane) dihydrochloride (AAPH) is used. The final solution in the UV cuvette consisted of ten microliters of the 16 mM linoleate sodium dispersion 0.93 mL of 0.05 M phosphate buffer, pH 7.4, thermostatted at 37° C. 50 μL of 40 mM AAPH solution was added as a free radical initiator at 37° C. under air and 10 μL of the tested compounds. The oxidation of linoleic acid sodium salt results a conjugated diene hydroperoxide. The reaction is monitored at 234 nm (Table 1).
3.3. Anti-lipid peroxidation activity of QNs. The water-soluble azo compound 2,2′-azobis(2-amidinopropane) dihydrochloride (AAPH) has been extensively used as a clean and controllable source of thermally produced alkyl peroxyl free radicals through spontaneous thermal decomposition. […] In the AAPH assay to determine the inhibition of the lipid peroxidation (ILPO), the highly reactive alkylperoxyl radicals are intercepted mainly by a hydrogen atom transfer from the antioxidant. As shown, QN23 presented limited value, where QNs 19, 22 and 24 presented very high values (Table 3).

[4] = Hydroxyl radical scavenging (competition with DMSO); format: biochemical; conditions: tested at 100 μM
Procedure: Hydroxyl Radicals Scavenging Activity.^32 The hydroxyl radicals were produced by the Fe^3+/ascorbic acid system. EDTA (0.1 mM), Fe^3+ (167 μM), DMSO (33 mM) in phosphate buffer (50 mM, pH 7.4), the tested compounds (0.1 mM) and ascorbic acid (10 mM) were mixed in test tubes. The solutions were incubated at 37° C. for 30 min. The reaction was stopped by trichloroacetic acid (17% w/v) (Table 1) and the % scavenging activity of the tested compounds for hydroxyl radicals was given.
3.2. Competition of QNs with DMSO for hydroxyl radicals. Among the ROS, the hydroxyl (·OH) free radical is possibly the most toxic, as it easily reacts with biological important molecules such as DNA, lipids or carbohydrates. Polyunsaturated fatty acids are found in high concentrations in the CNS, and are particularly vulnerable to free radicals attack. Thus, we tried to test the ability of our compound to scavenge hydroxyl radicals. […] Antioxidants with lipophilic character are needed to act as radical scavengers or as chain-breaking antioxidants in biological membranes.

[5] = Interaction with the stable radical DPPH; format: biochemical; conditions: tested at 100 μM; reducing activity
Procedure: Interaction of the nitrone with the Stable Radical 1,1-diphenyl-picrylhydrazyl (DPPH) To a solution of DPPH in absolute ethanol the appropriate volume of the compounds (0.1 mM final concentrations) dissolved in DMSO was added. The absorbance was recorded at 517 nm after 20 and 60 min at room temperature (Table 1).
3.1. Antioxidant activity of QNs using radical DPPH. […] This purple colour generally disappears in the presence of an antioxidant due to the reduction of the DPPH radical by single electron transfer (SET) from the antioxidant converted it to colourless/bleached product. […] In this assay, we measured the initial absorbance of DPPH and the absorbance once the potential antioxidant was added. The antioxidant activity was expressed as the percentage of reducing activity.

[6] = tested on: primary neuronal cultures from rat cerebral cortex; experiment: Neuroprotection (MTT cell viability) in primary neuronal cultures exposed to oxygen-glucose deprivation (OGD); format: cell-based; conditions: Rattus norvegicus, 24 h recovery after 4 h OGD, R24 h = 0%, control = 100%
Procedure: Primary neuronal cultures. Primary neuronal cultures from rat cerebral cortex were prepared as previously described.^54 All procedures associated with animal experiments were approved by the Ethics Committee of the Hospital Ramón y Cajal, Madrid (Spain). Cell suspensions from cerebral cortex were prepared from 16- to 17-day-old Sprague-Dawley rat embryos. Living cells in cell suspension were counted by trypan blue exclusion method. Cells were seeded on plastic multidishes precoated with 0.05 mg/mL poly-D-lysine at a density of 2.5×10^5 cells/cm^2 and were kept at 37° C. in a 6.5% CO2 atmosphere in high glucose Dulbecco's medium supplemented with 15% heat-inactivated (56° C. for 30 min) foetal calf serum. After 24 h, cultured cells were […] to induce experimental ischemia.^23 Cultured cells were washed and placed in glucose-free Dulbecco's medium (bubbled with 95% N2/5% CO2 for 30 min), and maintained in a humidified hypoxia chamber equipped with an oxygen and carbon dioxide control unit (Biospherix) at 6.5% CO2 and <0.1% O2 in N2 at 37° C. Cells were exposed to OGD for a period of 4 h (OGD 4 h). At the end of the OGD period, culture medium was replaced with oxygenated serum-free medium, and cells were placed and maintained in the normoxic incubator for 24 h to recovery (R24 h). In the neuroprotection experiments, the compounds were added at the onset of recovery period. Control cultures in Dulbecco's medium containing glucose were kept in the normoxic incubator for the same period of time as the OGD, and then medium (Dulbecco's/Ham's F12, 1:1 [vol/vol], 5 mg/mL glucose, 2 mM L-glutamine, and 1 mM sodium pyruvate, and supplemented with 100 μg/mL transferrin, 100 μM putrescine, 20 nM progesterone, 30 nM sodium selenite and 5 μg/mL insulin). Here, 6-7 day old cultured neurons were used in the experiments, and contained 90% β-III-tubulin-positive mature neurons, as described previously.^55
Exposure of cell cultures to oxygen-glucose deprivation and treatments. Primary neuronal cultures were exposed to […]. Control experiments included the same amounts of vehicle (final concentration<0.5% ethanol). Nitrone 2 was used as reference compound for neuroprotection. The experimental procedures were blindly performed, assigning a random order to each assayed nitrone. Nitrones were analyzed independently four-eight times with different batch of cultures and each experiment was run in quadruplicate.
Cell viability assay. Cell viability was evaluated by quantification of living, metabolically active cells, as determined by a colorimetric assay using the photometric reduction of 3-(4,5-dimethylthiazol-2-yl)-2,5-diphenyl tetrazolium bromide (MTT) (Roche) to a blue formazan product. The assay of living, metabolically active cells was performed by incubating with 0.2 mg/mL MTT in the culture medium for 1.5 h in an incubator at 37° C. in a 6.5% CO2 atm. After the incubation period, cells were lysed with an equal volume of 10 mM HCl and 10% SDS overnight. Values were quantified by absorbance (test 595 nm, reference 690 nm). Decreased MTT activity denotes impairment of mitochondrial function and is considered to be an index of cell damage. Primary neuronal cultures were collected at times indicated for MTT determination.
Neuroprotection of compounds was evaluated by a cell viability assay. The neuroprotective effect of the compounds 5-32 was evaluated on primary neuronal cultures from cerebral cortex subjected to oxygen-glucose deprivation (OGD) to induce experimental ischemia. Afterwards, cultured neurons were placed and kept in normoxic and normoglycemic conditions to recovery. […]

Compound	viability at 0.3 µM [6] [%]	viability at 1 µM [6] [%]	viability at 10 µM [6] [%]	viability at 100 µM [6] [%]	melting point [°C]	other results
COc1ccc2c(c1)c(CC(=O)O)c(C)n2C(=O)c1ccc(Cl)cc1 [Indomethacin, indomethacin, reference compound]	–	–	–	–	–	ICPE % [1]: 47 ± 1.0 %
Cc1c(C)c2c(c(C)c1O)CCC(C)(C(=O)O)O2 (stereo not shown) [Trolox, reference compound]	–	–	–	–	–	ABTS*+ (%) [2]: 91%; ILPO (%) / AAPH (%) [3]: 63% and 88%; ILPO (%) / AAPH (%) ([3]; listed as trolox): 88%; *OH (%) [4]: 73%
CC(Cc1ccc(O)c(O)c1)C(C)Cc1ccc(O)c(O)c1 (stereo not shown) [NDGA, nordihydroguaiaretic acid, reference compound]	–	–	–	–	–	DPPH (%) [5]: 93%
Cc1ccc2c(c1)cc(/C=[N+](\[O-])Cc1ccccc1)c(Cl)[n+]2[O-] [Compound 29, (Z)—N-Benzyl-1-(2-chloro-6-methyl-1-oxidoquinolin-3-yl)methanimine oxide]	8.28 ± 0.51	< 0	< 0	< 0	163 to 165	–
Cc1ccc2c(c1)cc(/C=[N+](\[O-])C(C)(C)C)c(Cl)[n+]2[O-] [Compound 30, (Z)—N-tert-Butyl-1-(2-chloro-6-methyl-1-oxidoquinolin-3-yl)methanimine oxide]	13 ± 0.47	37.5 ± 1.94	< 0	< 0	211 to 214	–
